Test results published in patent US8470963B2, “Multifunctional compounds for pharmaceutical purposes” (Sku Asset Management GmbH, priority 2006, dated 2013).

Legend:
Her-2 (human ErbB-2) = Her-2 (human ErbB-2) (Homo sapiens, UniProt P04626); details: target Her-2 (human ErbB-2); Karasseva et al, 2002; read-out: Affinity (kD); cited from earlier work
FGF receptor = details: target FGF receptor; if multivalent; Maruta et al, 2002; read-out: Affinity (kD); cited from earlier work
hepatoma cells = assay: Hepatoma solid tumor model in strain 13 guinea pigs: tumor weight and macrophage infiltration; format: in vivo, guinea pig; details: compared to control Group 1 (PBS); for numbers of esterase-positive cells in tumors (macrophage infiltration): 1 mg per animal ip on day 5, sacrifice on day 15, non-specific esterase stain; for mean tumor weight: 1 mg per animal ip on day 5, tumors excised and weighed on day 15
Procedure: Hepatoma cells are propagated by ip (intraperitoneal) passage in weanling strain 13 male guinea pigs (NIH). Single-cell suspensions are prepared by enzymatic digestion as described. Strain 13 male guinea pigs are injected ip with a suspension of approx. 2*10^6 hepatoma cells to produce solid tumors (day 1). Animals are grouped into 4 groups (six animals each) and are given ip injections on day 5: Phosphate-buffered saline (PBS) (Group 1; control); 1 mg peptide NH2-AWYPLPP-COOH per animal (Group 2; binder only); 1 mg peptide fMLP-COOH per animal (Group 3; effector only); 1 mg compound fMLPK-(NH2-AWYPLPP)-GGGK-(NH2-AWYPLPP)-1-COOH per animal (Group 4). Animals are sacrificed on day 15 and tumors are excised and weighed. In addition macrophage infiltration of tumors is evaluated. Therefore, tumors are fixed in phosphate-buffered formalin and embedded in paraffin blocks. Sections (5 μm) are cut and stained for non-specific esterase activity. Esterase-positive cells are quantified with an image analyser (Optomax, Inc.).

[1] = test system: human neuroblastoma cells WAC 2; breast cancer cells MDA-MB-435; details: WAC 2 neuroblastoma cells; MDA-MB-435 breast cancer cells; Askoxylakis et al; read-out: Affinity (kD); cited from earlier work
[2] = target: Glucose-regulated protein 78 (GRP78) (Homo sapiens, UniProt P11021); details: target GRP78; Arap et al, 2004; read-out: Affinity (kD); cited from earlier work
EGFR = EGFR (Homo sapiens, UniProt P00533); details: target EGFR; Li et al 2005; read-out: Affinity (kD); cited from earlier work
EGFRvIII = EGFRvIII (Homo sapiens, UniProt P00533, DELINS30-297G); details: target EGFRvIII; Campa et al 2002; read-out: Affinity (kD); cited from earlier work

Sequence of Glucose-regulated protein 78 (GRP78) (P11021 19-654, species assumed): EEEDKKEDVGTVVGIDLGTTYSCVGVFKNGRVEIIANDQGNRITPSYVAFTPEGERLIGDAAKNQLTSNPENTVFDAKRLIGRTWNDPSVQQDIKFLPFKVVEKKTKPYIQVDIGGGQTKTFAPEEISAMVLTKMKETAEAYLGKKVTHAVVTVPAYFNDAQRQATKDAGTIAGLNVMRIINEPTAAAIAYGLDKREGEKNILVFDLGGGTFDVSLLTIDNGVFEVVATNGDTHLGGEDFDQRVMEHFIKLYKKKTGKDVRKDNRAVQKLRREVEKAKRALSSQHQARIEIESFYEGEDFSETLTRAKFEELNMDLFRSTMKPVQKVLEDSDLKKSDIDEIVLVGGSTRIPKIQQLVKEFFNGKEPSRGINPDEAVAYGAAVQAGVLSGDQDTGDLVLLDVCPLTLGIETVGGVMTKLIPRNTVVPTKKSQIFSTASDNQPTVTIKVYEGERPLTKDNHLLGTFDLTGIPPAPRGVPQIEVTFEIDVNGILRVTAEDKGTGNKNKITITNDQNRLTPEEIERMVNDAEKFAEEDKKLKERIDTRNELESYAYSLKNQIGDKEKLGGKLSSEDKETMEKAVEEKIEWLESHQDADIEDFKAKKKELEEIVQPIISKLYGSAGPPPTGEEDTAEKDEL

With KCCYSL as the substance, how does the Kd (Her-2 (human ErbB-2)) read?
The Kd was 30000 nM.

With MQLPLAT as the substance, how does the Kd (FGF receptor) read?
The Kd was 0.25 nM.

What does the source list for “NH2-AWYPLPP-COOH (H-AWYPLPP-OH) [binder]”?
numbers of esterase-positive cells in tumors (macrophage infiltration) (hepatoma cells): comparable to Group 1; mean tumor weight (hepatoma cells): no or only marginal effect

Which Kd [1] does the source give for VPWMEPAYQRFL here?
The Kd was 600 nM.

For WDLAWMFRLPVG, which Kd [2] is on record?
The Kd was 5 to 50 nM.

For WIFPWIQL, which Kd [2] is on record?
Its Kd is 5 to 50 nM.

What does the source list for YHWYGYTPQNVI?
Kd (EGFR): 22 nM; Kd (EGFRvIII): 30 nM

For fMLP-COOH [effector], which “numbers of esterase-positive cells in tumors (macrophage infiltration)” value (hepatoma cells) is on record?
The value was “slightly increased”.

And the mean tumor weight (hepatoma cells)?
The mean tumor weight was “no or only marginal effect”.

Which results are given for “fMLPK-(NH2-AWYPLPP)-GGGK-(NH2-AWYPLPP)-I-COOH [compound]”?
numbers of esterase-positive cells in tumors (macrophage infiltration) (hepatoma cells): significantly increased; mean tumor weight (hepatoma cells): significantly decreased
